ChEMBL document CHEMBL1944551, “An integrated computational workflow for efficient and quantitative modeling of renin inhibitors” (Bioorg Med Chem, 2012)

Test: physchem
Conditions: octanol/buffer
CC(C)(C)OCC(=O)NCCc1ccc(Cl)c(CN(C(=O)[C@H]2CNCC(=O)N2c2ccc(CCCOc3c(F)ccc(F)c3F)cc2)C2CC2)c1 gave a logP of 6.28. With CNC(=O)Cc1ccc(Cl)c(CN(C(=O)[C@H]2CNCC(=O)N2c2ccc(OCCOc3c(Cl)cc(C)cc3Cl)cc2)C2CC2)c1 the logP was 5.26. For CNC(=O)Cc1ccc(Cl)c(CN(C(=O)[C@H]2CNCC(=O)N2c2ccc(OCCOc3c(Cl)cc(C)cc3Cl)nc2)C2CC2)c1, the logP was 4.43. For CNC(=O)Cc1ccc(Cl)c(CN(C(=O)[C@H]2CNCC(=O)N2c2ccc(COC(=O)c3ccccc3)cc2)C2CC2)c1, the logP was 4.15. Compound CNC(=O)Cc1ccc(Cl)c(CN(C(=O)[C@H]2CNCC(=O)N2c2ccc(OCCCOCc3ccccc3)cc2)C2CC2)c1 has a logP of 4.53. Compound CNC(=O)Cc1ccc(Cl)c(CN(C(=O)[C@H]2CNCC(=O)N2c2ccc(OCCCOCc3ccccc3OC)cc2)C2CC2)c1 has a logP of 4.48. For CNC(=O)Cc1ccc(Cl)c(CN(C(=O)[C@H]2CNCC(=O)N2c2cnc(OCCCOCc3ccccc3OC)nc2)C2CC2)c1, the logP was 2.47. CNC(=O)Cc1ccc(Cl)c(CN(C(=O)[C@H]2CNCC(=O)N2c2ccc(CCCOc3cccc(Cl)c3)cc2)C2CC2)c1 gave a logP of 5.33. In the case of CNC(=O)Cc1ccc(Cl)c(CN(C(=O)[C@H]2CNCC(=O)N2c2ccc(CCCOc3c(F)ccc(F)c3F)cc2)C2CC2)c1, the logP was 5.15. In the case of Cc1cc(Cl)c(OCCOc2ccc(N3C(=O)CNC[C@@H]3C(=O)N(C)Cc3ccccc3Cl)cc2)c(Cl)c1, the logP was 5.18. Compound Cc1cc(Cl)c(OCCOc2ccc(N3C(=O)CNC[C@@H]3C(=O)N(C)Cc3ccccc3Cl)cn2)c(Cl)c1 has a logP of 4.35. Work on CN(Cc1ccccc1Cl)C(=O)[C@H]1CNCC(=O)N1c1ccc(OCCCOCc2ccccc2)cc1 yielded a logP of 4.45. COc1ccccc1COCCCOc1ccc(N2C(=O)CNC[C@@H]2C(=O)N(C)Cc2ccccc2Cl)cc1 showed a logP of 4.41. With COc1ccccc1COCCCOc1ncc(N2C(=O)CNC[C@@H]2C(=O)N(C)Cc2ccccc2Cl)cn1 the logP was 2.4. In the case of CN(Cc1ccccc1Cl)C(=O)[C@H]1CNCC(=O)N1c1ccc(CCCOc2cccc(Cl)c2)cc1, the logP was 5.25. For CN(Cc1ccccc1Cl)C(=O)[C@H]1CNCC(=O)N1c1ccc(CCCOc2c(F)ccc(F)c2F)cc1, the logP was 5.07. In the case of Cc1cc(Cl)c(OCCOc2ccc(N3C(=O)CNC[C@@H]3C(=O)NCc3ccccc3Cl)cc2)c(Cl)c1, the logP was 4.98. With Cc1cc(Cl)c(OCCOc2ccc(N3C(=O)CNC[C@@H]3C(=O)NCc3ccccc3Cl)cn2)c(Cl)c1 the logP was 4.15. For O=C(OCc1ccc(N2C(=O)CNC[C@@H]2C(=O)NCc2ccccc2Cl)cc1)c1ccccc1, the logP was 3.88. O=C(NCc1ccccc1Cl)[C@H]1CNCC(=O)N1c1ccc(OCCCOCc2ccccc2)cc1 gave a logP of 4.26. With COc1ccccc1COCCCOc1ccc(N2C(=O)CNC[C@@H]2C(=O)NCc2ccccc2Cl)cc1 the logP was 4.21. Compound O=C(NCc1ccccc1Cl)[C@H]1CNCC(=O)N1c1ccc(CCCOc2cccc(Cl)c2)cc1 has a logP of 5.05. For O=C(NCc1ccccc1Cl)[C@H]1CNCC(=O)N1c1ccc(CCCOc2c(F)ccc(F)c2F)cc1, the logP was 4.88. Work on Cc1cc(Cl)c(OCCOc2ccc(N3C(=O)CNC[C@@H]3C(=O)N(C)Cc3ccccc3)cc2)c(Cl)c1 yielded a logP of 4.59. With Cc1cc(Cl)c(OCCOc2ccc(N3C(=O)CNC[C@@H]3C(=O)N(C)Cc3ccccc3)cn2)c(Cl)c1 the logP was 3.76. For CN(Cc1ccccc1)C(=O)[C@H]1CNCC(=O)N1c1ccc(COC(=O)c2ccccc2)cc1, the logP was 3.49. In the case of CN(Cc1ccccc1)C(=O)[C@H]1CNCC(=O)N1c1ccc(OCCCOCc2ccccc2)cc1, the logP was 3.86. For COc1ccccc1COCCCOc1ccc(N2C(=O)CNC[C@@H]2C(=O)N(C)Cc2ccccc2)cc1, the logP was 3.82. Compound COc1ccccc1COCCCOc1ncc(N2C(=O)CNC[C@@H]2C(=O)N(C)Cc2ccccc2)cn1 has a logP of 1.8. In the case of CN(Cc1ccccc1)C(=O)[C@H]1CNCC(=O)N1c1ccc(CCCOc2cccc(Cl)c2)cc1, the logP was 4.66. With CN(Cc1ccccc1)C(=O)[C@H]1CNCC(=O)N1c1ccc(CCCOc2c(F)ccc(F)c2F)cc1 the logP was 4.49. For Cc1cc(Cl)c(OCCOc2ccc(N3C(=O)CNC[C@@H]3C(=O)N(Cc3cccc(Cl)c3)C3CC3)cc2)c(Cl)c1, the logP was 5.87. In the case of Cc1cc(Cl)c(OCCOc2ccc(N3C(=O)CNC[C@@H]3C(=O)N(Cc3cccc(Cl)c3)C3CC3)cn2)c(Cl)c1, the logP was 5.04. For O=C(OCc1ccc(N2C(=O)CNC[C@@H]2C(=O)N(Cc2cccc(Cl)c2)C2CC2)cc1)c1ccccc1, the logP was 4.77. For O=C([C@H]1CNCC(=O)N1c1ccc(OCCCOCc2ccccc2)cc1)N(Cc1cccc(Cl)c1)C1CC1, the logP was 5.14. Work on COc1ccccc1COCCCOc1ccc(N2C(=O)CNC[C@@H]2C(=O)N(Cc2cccc(Cl)c2)C2CC2)cc1 yielded a logP of 5.1. COc1ccccc1COCCCOc1ncc(N2C(=O)CNC[C@@H]2C(=O)N(Cc2cccc(Cl)c2)C2CC2)cn1 gave a logP of 3.09. O=C([C@H]1CNCC(=O)N1c1ccc(CCCOc2cccc(Cl)c2)cc1)N(Cc1cccc(Cl)c1)C1CC1 showed a logP of 5.94. O=C([C@H]1CNCC(=O)N1c1ccc(CCCOc2c(F)ccc(F)c2F)cc1)N(Cc1cccc(Cl)c1)C1CC1 showed a logP of 5.77. For Cc1cc(Cl)c(OCCOc2ccc(N3C(=O)CNC[C@@H]3C(=O)N(Cc3cccc(C)c3C)C3CC3)cc2)c(Cl)c1, the logP was 5.83. Work on Cc1cc(Cl)c(OCCOc2ccc(N3C(=O)CNC[C@@H]3C(=O)N(Cc3cccc(C)c3C)C3CC3)cn2)c(Cl)c1 yielded a logP of 5.01. Work on Cc1cccc(CN(C(=O)[C@H]2CNCC(=O)N2c2ccc(COC(=O)c3ccccc3)cc2)C2CC2)c1C yielded a logP of 4.73. For Cc1cccc(CN(C(=O)[C@H]2CNCC(=O)N2c2ccc(OCCCOCc3ccccc3)cc2)C2CC2)c1C, the logP was 5.11. COc1ccccc1COCCCOc1ccc(N2C(=O)CNC[C@@H]2C(=O)N(Cc2cccc(C)c2C)C2CC2)cc1 gave a logP of 5.06. Compound COc1ccccc1COCCCOc1ncc(N2C(=O)CNC[C@@H]2C(=O)N(Cc2cccc(C)c2C)C2CC2)cn1 has a logP of 3.05. With Cc1cccc(CN(C(=O)[C@H]2CNCC(=O)N2c2ccc(CCCOc3cccc(Cl)c3)cc2)C2CC2)c1C the logP was 5.91. For Cc1cccc(CN(C(=O)[C@H]2CNCC(=O)N2c2ccc(CCCOc3c(F)ccc(F)c3F)cc2)C2CC2)c1C, the logP was 5.73. COc1cccc(CN(C(=O)[C@H]2CNCC(=O)N2c2ccc(OCCOc3c(Cl)cc(C)cc3Cl)cc2)C2CC2)c1C gave a logP of 5.49. Work on COc1cccc(CN(C(=O)[C@H]2CNCC(=O)N2c2ccc(OCCOc3c(Cl)cc(C)cc3Cl)nc2)C2CC2)c1C yielded a logP of 4.66. With COc1cccc(CN(C(=O)[C@H]2CNCC(=O)N2c2ccc(COC(=O)c3ccccc3)cc2)C2CC2)c1C the logP was 4.39. COc1cccc(CN(C(=O)[C@H]2CNCC(=O)N2c2ccc(OCCCOCc3ccccc3)cc2)C2CC2)c1C gave a logP of 4.76. For COc1ccccc1COCCCOc1ccc(N2C(=O)CNC[C@@H]2C(=O)N(Cc2cccc(OC)c2C)C2CC2)cc1, the logP was 4.72. In the case of COc1ccccc1COCCCOc1ncc(N2C(=O)CNC[C@@H]2C(=O)N(Cc2cccc(OC)c2C)C2CC2)cn1, the logP was 2.71. Compound COc1cccc(CN(C(=O)[C@H]2CNCC(=O)N2c2ccc(CCCOc3cccc(Cl)c3)cc2)C2CC2)c1C has a logP of 5.56. Compound O=C([C@H]1CNCC(=O)N1c1ccc(OCCCOCc2ccccc2)cc1)N(Cc1cc(CNC2CC2)ccc1Cl)C1CC1 has a logP of 5.58. With COc1ccccc1COCCCOc1ccc(N2C(=O)CNC[C@@H]2C(=O)N(Cc2cc(CNC3CC3)ccc2Cl)C2CC2)cc1 the logP was 5.53. COc1ccccc1COCCCOc1ncc(N2C(=O)CNC[C@@H]2C(=O)N(Cc2cc(CNC3CC3)ccc2Cl)C2CC2)cn1 gave a logP of 3.52. Work on COc1cccc(CN(C(=O)[C@H]2CNCC(=O)N2c2ccc(CCCOc3c(F)ccc(F)c3F)cc2)C2CC2)c1C yielded a logP of 5.39. Work on Cc1cc(Cl)c(OCCOc2ccc(N3C(=O)CNC[C@@H]3C(=O)N(Cc3cccc(Cl)c3Cl)C3CC3)cc2)c(Cl)c1 yielded a logP of 6.42. With O=C([C@H]1CNCC(=O)N1c1ccc(CCCOc2cccc(Cl)c2)cc1)N(Cc1cc(CNC2CC2)ccc1Cl)C1CC1 the logP was 6.38. In the case of O=C([C@H]1CNCC(=O)N1c1ccc(CCCOc2c(F)ccc(F)c2F)cc1)N(Cc1cc(CNC2CC2)ccc1Cl)C1CC1, the logP was 6.2. Cc1cc(Cl)c(OCCOc2ccc(N3C(=O)CNC[C@@H]3C(=O)N(Cc3cc(CCNC(=O)CC(F)(F)F)ccc3Cl)C3CC3)cc2)c(Cl)c1 showed a logP of 6.11. For Cc1cc(Cl)c(OCCOc2ccc(N3C(=O)CNC[C@@H]3C(=O)N(Cc3cc(CCNC(=O)CC(F)(F)F)ccc3Cl)C3CC3)cn2)c(Cl)c1, the logP was 5.28. O=C(CC(F)(F)F)NCCc1ccc(Cl)c(CN(C(=O)[C@H]2CNCC(=O)N2c2ccc(COC(=O)c3ccccc3)cc2)C2CC2)c1 gave a logP of 5. In the case of O=C(CC(F)(F)F)NCCc1ccc(Cl)c(CN(C(=O)[C@H]2CNCC(=O)N2c2ccc(OCCCOCc3ccccc3)cc2)C2CC2)c1, the logP was 5.38. COc1ccccc1COCCCOc1ccc(N2C(=O)CNC[C@@H]2C(=O)N(Cc2cc(CCNC(=O)CC(F)(F)F)ccc2Cl)C2CC2)cc1 gave a logP of 5.33. Work on COc1ccccc1COCCCOc1ncc(N2C(=O)CNC[C@@H]2C(=O)N(Cc2cc(CCNC(=O)CC(F)(F)F)ccc2Cl)C2CC2)cn1 yielded a logP of 3.32. In the case of O=C(CC(F)(F)F)NCCc1ccc(Cl)c(CN(C(=O)[C@H]2CNCC(=O)N2c2ccc(CCCOc3cccc(Cl)c3)cc2)C2CC2)c1, the logP was 6.18. O=C(CC(F)(F)F)NCCc1ccc(Cl)c(CN(C(=O)[C@H]2CNCC(=O)N2c2ccc(CCCOc3c(F)ccc(F)c3F)cc2)C2CC2)c1 gave a logP of 6. In the case of Cc1cc(Cl)c(OCCOc2ccc(N3C(=O)CNC[C@@H]3C(=O)N(Cc3cc(CCNC(=O)COC(C)(C)C)ccc3Cl)C3CC3)cc2)c(Cl)c1, the logP was 6.38. Cc1cc(Cl)c(OCCOc2ccc(N3C(=O)CNC[C@@H]3C(=O)N(Cc3cc(CCNC(=O)COC(C)(C)C)ccc3Cl)C3CC3)cn2)c(Cl)c1 gave a logP of 5.56. With CC(C)(C)OCC(=O)NCCc1ccc(Cl)c(CN(C(=O)[C@H]2CNCC(=O)N2c2ccc(COC(=O)c3ccccc3)cc2)C2CC2)c1 the logP was 5.28. Compound CC(C)(C)OCC(=O)NCCc1ccc(Cl)c(CN(C(=O)[C@H]2CNCC(=O)N2c2ccc(OCCCOCc3ccccc3)cc2)C2CC2)c1 has a logP of 5.66. In the case of COc1ccccc1COCCCOc1ccc(N2C(=O)CNC[C@@H]2C(=O)N(Cc2cc(CCNC(=O)COC(C)(C)C)ccc2Cl)C2CC2)cc1, the logP was 5.61. Work on COc1ccccc1COCCCOc1ncc(N2C(=O)CNC[C@@H]2C(=O)N(Cc2cc(CCNC(=O)COC(C)(C)C)ccc2Cl)C2CC2)cn1 yielded a logP of 3.6. Compound CC(C)(C)OCC(=O)NCCc1ccc(Cl)c(CN(C(=O)[C@H]2CNCC(=O)N2c2ccc(CCCOc3cccc(Cl)c3)cc2)C2CC2)c1 has a logP of 6.46.
